Here are results for 45 compounds from PMC4887496, “The Mouthparts Enriched Odorant Binding Protein 11 of the Alfalfa Plant Bug Adelphocoris lineolatus Displays a Preferential Binding Behavior to Host Plant Secondary Metabolites” (Frontiers in Physiology, 2016).

T1 sequence (F4Y5P9 entry or part of it): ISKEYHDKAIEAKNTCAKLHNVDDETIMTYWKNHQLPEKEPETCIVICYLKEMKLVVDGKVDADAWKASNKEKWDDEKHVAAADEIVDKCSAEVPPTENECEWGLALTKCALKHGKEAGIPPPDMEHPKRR

One assay concerns the target T1, recombinant AlinOBP11 (Adelphocoris lineolatus, UniProt F4Y5P9). Kind of assay: Binding of fluorescent probe 1-NPN to recombinant AlinOBP11 (fluorescence titration, Scatchard plot). As to conditions: 2 μM protein in 50 mM Tris-HCl pH 7.4, 1-NPN 1 to 16 μM; read-out: dissociation constant of the AlinOBP11/1-NPN complex.
As to `c1ccc(Nc2cccc3ccccc23)cc1` [1-NPN, N-phenyl-1-naphthylamine], the Kd was determined as 5.86 ± 0.47 µM.

The target in another assay is T1, recombinant AlinOBP11. The assay is described as follows: biochemical. It counts as binding.
Conditions: not given
For orientation: IC50 means the midpoint of a concentration-inhibition curve. As to `CCCCCCO` [1-Hexanol], the IC50 is > 30 µM.
`CCCCC(C)=O` [2-Hexanone]: the half-maximal inhibitory concentration (IC50) was > 30 µM.
On to `CC(=O)CCC=C(C)C` [6-Methyl-5-hepten-2-one], for which the IC50 was > 30 µM.
Take `CC(=O)c1ccccc1` [Acetophenone]: the IC50 was > 30 µM.
In the case of `O=Cc1ccccc1` [Benzaldehyde], the IC50 was > 30 µM.
On the same count and under the same terms, next, `CCCC(=O)OCC` [Ethyl butyrate]: > 30 µM.
In general, Ki refers to a dissociation constant, usually derived from enzyme kinetics or from competition with a known ligand. For the compound `Cc1cc2c(C(C)C)c(O)c(O)c(C=O)c2c(O)c1-c1c(C)cc2c(C(C)C)c(O)c(O)c(C=O)c2c1O` [Gossypol], the IC50 was 4.45 ± 0.34 µM and the Ki was found to be 3.43 ± 0.32 µM.
On to `CCCCCCC=O` [Heptanal], for which the IC50 is > 30 µM.
As to `CCCCCC=O` [Hexanal], the IC50 is > 30 µM.
For the compound `c1ccc2[nH]ccc2c1` [Indole], the IC50 is > 30 µM.
Take `COC(=O)c1ccccc1O` [Methyl salicylate]: the IC50 is > 30 µM.
Same read-out and setting: next, `CC/C=C\CCO` [cis-3-Hexen-1-ol]: > 30 µM.
Consider `CCC/C=C/C=O` [trans-2-Hexenal], for which the IC50 is > 30 µM.
As to `CC1=CC[C@H](C(C)C)C=C1` [α-Phellandrene], the IC50 stood at 26.2 ± 0.52 µM and the inhibitory constant (Ki) is 20.1 ± 0.41 µM.
Consider `C=C1CC/C=C(\C)CC[C@@H]2[C@@H]1CC2(C)C` [β-Caryophyllene], for which the IC50 was > 30 µM.
Same read-out and setting: next, `CC(=O)/C=C/C1=C(C)CCCC1(C)C` [β-Ionone]: > 30 µM; `C=C1CCC2CC1C2(C)C` (stereo not drawn) [β-Pinene]: > 30 µM.

Staying with this assay, now noted: 2 μM protein, 2 μM 1-NPN, 50 mM Tris-HCl pH 7.4, competitor 2 to 30 μM, 25°C; read-out: IC50 (μM) AlinOBP11.
Consider `C=CC(C)(O)CCC=C(C)CCC=C(C)C` (mixture of isomers) [Nerolidol], for which the IC50 is 27.2 ± 0.71 µM.
`CCCCCC(C)=O` [2-Heptanone]: the IC50 is > 30 µM.
Regarding `CCCCC(C)O` (stereo not shown) [2-Hexanol], the half-inhibitory concentration (IC50) was > 30 µM.
With `CCCCCCC(C)=O` [2-Octanone], the IC50 was > 30 µM.
`Cc1ccc(C=O)cc1C` [3,4-Dimethyl-benzaldehyde]: the IC50 was > 30 µM.
With `CCCC(=O)CC` [3-Hexanone], the IC50 was > 30 µM.
On to `Oc1cc(O)c2c(c1)O[C@@H](c1ccc(O)c(O)c1)[C@H](O)C2` [(−)-Catechin], for which the IC50 was determined as 19.3 ± 0.93 µM.
As for `CCCCCOC(C)=O` [Amyl acetate], the concentration for half-maximal inhibition (IC50) is > 30 µM.
As to `CCCCOC(=O)CCC` [Butyl butyrate], the IC50 is > 30 µM.
As to `C=C/C(C)=C/CC=C(C)C` [E-β-Ocimene], the IC50 is > 30 µM.
Consider `CCCCCCOC(=O)CCC` [Hexyl butyrate], for which the IC50 was > 30 µM.
As to `CCCCCCOC(=O)CCCCC` [Hexyl hexanoate], the IC50 is > 30 µM.
Turning to `C=C(C)[C@H]1CC=C(C)CC1` [Limonene], the IC50 is > 30 µM.
Consider `C=CC(=C)CCC=C(C)C` [Myrcene], for which the IC50 was > 30 µM.
For the compound `CCCCCCCCC=O` [Nonanal], the IC50 is > 30 µM.
Regarding `CCCCCCCCCOC(C)=O` [Nonyl acetate], the IC50 is > 30 µM.
On the same count and under the same terms, the same measure for `CCCCCCCC=O` [Octanal]: > 30 µM.
For the compound `CCCCCO` [Pentanol], the half-maximal inhibitory concentration (IC50) was > 30 µM.
For the compound `C[C@@H]1O[C@@H](OC[C@H]2O[C@@H](Oc3c(-c4ccc(O)c(O)c4)oc4cc(O)cc(O)c4c3=O)[C@H](O)[C@@H](O)[C@@H]2O)[C@H](O)[C@H](O)[C@H]1O.O` [Rutin hydrate], the IC50 came to 9.89 ± 1.61 µM.
Consider `CCCCCCCCCCC` [Undecane], for which the IC50 was > 30 µM.
For `CCCCC=O` [Valeraldehyde], the IC50 is > 30 µM.
On to `CC/C=C\CCOC(C)=O` [cis-3-hexenyl acetate], for which the IC50 was > 30 µM.
For the compound `CC(C)=CCC/C(C)=C/CC/C(C)=C/CO` [trans,trans-Farnesol], the IC50 was 25.2 ± 2.36 µM.
For `CCC/C=C/COC(=O)CCC` [trans-2-hexenyl butyrate], the IC50 is > 30 µM.
In the case of `C=CC(=C)CC/C=C(\C)CCC=C(C)C` [trans-β-Farnesene], the IC50 was > 30 µM.
`C/C1=C\CC/C(C)=C/CC(C)(C)/C=C/C1` [α-Humulene]: the IC50 is > 30 µM.
Consider (+)-α-Pinene, for which the IC50 is > 30 µM.

The same assay, now with this note: […]; 2 μM protein, 2 μM 1-NPN, pH 7.4; read-out: Ki (μM) AlinOBP11.
Consider `Oc1cc(O)c2c(c1)O[C@@H](c1ccc(O)c(O)c1)[C@H](O)C2` [(−)-Catechin], for which the Ki worked out at 15.3 ± 0.7 µM.

The assay is the same for the next values; noted with them: calculated from IC50: Ki = [IC50]/(1+[1-NPN]/K1-NPN); 2 μM protein, 2 μM 1-NPN, pH 7.4; read-out: Ki (μM) AlinOBP11.
Take `C=CC(C)(O)CCC=C(C)CCC=C(C)C` (mixture of isomers) [Nerolidol]: the Ki was 20.8 ± 0.55 µM.
Turning to `C[C@@H]1O[C@@H](OC[C@H]2O[C@@H](Oc3c(-c4ccc(O)c(O)c4)oc4cc(O)cc(O)c4c3=O)[C@H](O)[C@@H](O)[C@@H]2O)[C@H](O)[C@H](O)[C@H]1O.O` [Rutin hydrate], the Ki was 7.78 ± 1.23 µM.
Take `CC(C)=CCC/C(C)=C/CC/C(C)=C/CO` [trans,trans-Farnesol]: the Ki was 19.3 ± 1.78 µM.

The test system of the next assay is AlucOBP36.
Experiment: not given
Set-up: method as in Hua et al., 2012. As to conditions: antennae expressed AlucOBP36; ref Hua et al., 2012; cited from earlier work.
Take `C[C@@H]1O[C@@H](OC[C@H]2O[C@@H](Oc3c(-c4ccc(O)c(O)c4)oc4cc(O)cc(O)c4c3=O)[C@H](O)[C@@H](O)[C@@H]2O)[C@H](O)[C@H](O)[C@H]1O.O` [Rutin hydrate]: the “binding abilities to AlucOBP36 (in words)” value is reported as “better binding abilities”.
